Assays:
[1] = tested on: liver cancer cells (hepatocellular carcinoma cell line); assay: XTT assay, growth of liver cancer cells; format: cell-based
Method: Please refer to FIG. 2, which is a view showing leptin's effect on growth of liver cancer cells. As shown in the figure, for acquiring effect of leptin on liver cancer cells, the preferred embodiment uses leptin having different doses, where the high-dose leptin has 100 nano-grams (ng) and the low-dose leptin has 10 ng. The 10 ng leptin is conformed to the physiological concentration of normal human body for observing effect of leptin on the cells. In the other hand, the 100 ng leptin is used to show whether a higher levels of leptin obtains a higher effect on the cells.
Please refer to FIG. 3, which is a view showing MPA's effect on growth of liver cancer cells. As shown in the figure, the preferred embodiment applies MPA having different doses to liver cancer cells.
Please refer to FIG. 4, which is a view showing effect of MPA+leptin on growth of liver cancer cells. As shown in the figure, the preferred embodiment applies MPA combined with leptin to liver cancer cells, where MPA has different doses and leptin has different doses.
Please refer to FIG. 9, which is a view showing reduced effect of MPA+leptin by suppressing leptin receptor expression. As shown in the figure, a 20 nano-moles (nM) of leptin receptor, siRNA, is transferred to cells to be cultured a day and is cultured in a serum-free medium for the next day. Then, the cells are processed with MPA+leptin for 24 hours to be analyzed through XTT assay. […] Thus, it is confirmed that leptin enhances MPA's suppression on the cells through the leptin receptor.
Please refer to FIG. 10A and FIG. 10B, which are views showing apoptosis of cells on increasing expression of leptin receptor and expression of progesterone receptor respectively. As shown in the figures, the preferred embodiment makes ob-Rb plasmid transfected to cells to be cultured a day and is cultured in a serum-free medium for the next day. Then, the cells are processed with MPA+leptin for 24 hours to be analyzed through XTT assay. […] Besides, the long-form Ob-R enhances expression of the progesterone receptor. Again, the preferred embodiment makes PgR plasmid transfected to cells to be cultured a day and is cultured in a serum-free medium for the next day. Then, the cells are processed with MPA+leptin for 24 hours to be analyzed through XTT assay.
Please refer to FIG. 15A to FIG. 16B, which are views showing cells containing very much leptin within; suppressed growth of the cells by using MPA; and STAT3- and MAPK-signal paths of the cells after MPA is applied. As shown in the figures, while leptin is added from outside in state 13 to suppress liver cancer cells with MPA+leptin, the preferred embodiment here transfers expression plasmid of leptin (pcLeptin) to liver cancer cells to be cultured for a day; and a serum-free medium is used for the next day. Then, after the cells are processed with 10^−4M MPA for 24 hours, cell growth is analyzed through XTT assay. In FIG. 15A, leptin gene is transferred to cells for a short time for obtaining very much leptin within the cells by themselves. After applying MPA to the cells for 24 hours, it is confirmed that MPA's suppression on liver cancer cells is enhanced by a lot of leptin self-generated within the cells. Moreover, after obtaining a lot of leptin, medium is collected for immunoprecipitation and further western blotting. […] Then, after the cells are processed with 10^−4 M MPA for 24 hours, JAK/STAT-related proteins are analyzed through western blotting.

JAK/STAT path = assay: Western blotting of JAK/STAT path proteins in liver cancer cells; format: cell-based; details: 24 hours
Method: Please refer to FIG. 11, which is a view showing expression of JAK/STAT path after applied with a drug. As shown in the figure, the preferred embodiment analyzes related proteins of liver cancer cells through western blotting after applied with MPA+leptin for 24 hours.
Please refer to FIG. 13A and FIG. 13A, which are views showing expressions of proteins of JAK/STAT path and proteins of MAPK path after applied with a drug for a short time. As shown in the figures, the preferred embodiment processes liver cancer cells with high-dose leptin, high-dose MPA and high-dose leptin combined with high-dose MPA for 30 minutes. Then, related JAK/STAT proteins are collected for analyzing their expressions through western blotting.
Please refer to FIG. 14, which is a view showing reduced p-STAT3 degradation by suppressing the ERK1/2 activation and the PIAS3 expression. […] The preferred embodiment uses a 10^−6M p-ERK1/2 inhibitor (U0126) for 4 hours before a drug is applied; then, liver cancer cells are applied with the drug of MPA+leptin for 3 hours to collect cellular proteins for analyzing expression of related proteins through western blotting. […] As a conclusion, MPA activates ERK1/2 to indirectly induce PIAS3 expression for suppressing p-STAT3 (Tyr705) for cell apoptosis, where leptin enhances activation of ERK1/2 with MPA for increasing cell apoptosis.
Please refer to FIG. 15A to FIG. 16B, which are views showing cells containing very much leptin within; suppressed growth of the cells by using MPA; and STAT3- and MAPK-signal paths of the cells after MPA is applied. […] Then, after the cells are processed with 10^−4M MPA for 24 hours, cell growth is analyzed through XTT assay. […] Then, after the cells are processed with 10^−4 M MPA for 24 hours, JAK/STAT-related proteins are analyzed through western blotting.

liver cancer patients = assay: Survival of liver cancer patients treated with MPA after surgery; format: in vivo, human; details: P value 0.008
Source text: In ‘in vitro’ studies and clinical experiments, leptin and MPA are found to have obvious effect on suppressing liver cancer cells and improving patient's survival rate. Thus, the therapeutic drug is formed by combining MAP with leptin to cure liver cancer patients, where the physiological concentration of leptin in a normal human body is almost able to enhance the treatment effect of MPA. MPA is used for treatment in the present invention, where, for obtaining a better effect, leptin is directly combined with MPA or leptin is obtained by increasing the physiological concentration of leptin in the patient at first.
Consequently, the leptin expression can be taken as an index for effectiveness of the hormone therapy (i.e. MPA) after the surgery; and, the survival time of the liver cancer patients can be maintained or even prolonged.

[2] = tested on: STAT- and MAPK-related signal paths; assay: Protein expression of STAT- and MAPK-related signal paths in normal liver cell line; format: cell-based
Method: Please refer to FIG. 17A to FIG. 18B, which are views showing epithelial cell line of normal liver treated with MPA+leptin for 24 hours and 48 hours respectively; and views showing STAT3- and MAPK-related signal paths after treating cell line of normal liver with MPA+leptin. As shown in the figures, after epithelial cell line of normal liver (THLE-3) is applied with MPA+leptin for […], MPA+leptin's effect on cell growth (i.e. survival rate) is analyzed through XTT assay. […] Besides, in FIG. 18A and FIG. 18B, protein expressions for STAT- and MAPK-related signal paths are analyzed.

SMILES: CC(=O)O[C@]1(C(C)=O)CC[C@H]2[C@@H]3C[C@H](C)C4=CC(=O)CC[C@]4(C)[C@H]3CC[C@@]21C [MPA, medroxyprogesterone acetate]
- MPA's suppression on liver cancer cells ([1]; cells transfected with pcLeptin, 10^-4 M MPA, 24 hours): enhanced
- suppressive effect on liver cancer cells ([1]; high-dose MPA 10^-4 M, 24 hours): obvious suppressive effect
- suppressive effect on liver cancer cells ([1]; high-dose MPA 10^-4 M, 48 hours): the effect is enhanced
- suppressive effect on liver cancer cells ([1]; low-dose MPA 10^-6 M, 24 hours or 48 hours): does not have obvious suppressive effect
- p-ob-R, ob-R and PgR expression (JAK/STAT path): suppresses
- activation of STAT3 compared with cells without much leptin (JAK/STAT path; pcLeptin-transfected cells, 10^-4 M MPA): more obviously suppressed
- survival time, patients with higher versus lower leptin expression (liver cancer patients): longer survival time
- effect on STAT- and MAPK-related signal proteins [2]: no obvious effect
